Consider seven compounds from BindingDB's records for PubMed 2017157 (Medical Research Service, 1991).

For the assay, the target named is D(2) dopamine receptor (Mus musculus, UniProt P61168).
Sequence of D(2) dopamine receptor (P61168 whole entry): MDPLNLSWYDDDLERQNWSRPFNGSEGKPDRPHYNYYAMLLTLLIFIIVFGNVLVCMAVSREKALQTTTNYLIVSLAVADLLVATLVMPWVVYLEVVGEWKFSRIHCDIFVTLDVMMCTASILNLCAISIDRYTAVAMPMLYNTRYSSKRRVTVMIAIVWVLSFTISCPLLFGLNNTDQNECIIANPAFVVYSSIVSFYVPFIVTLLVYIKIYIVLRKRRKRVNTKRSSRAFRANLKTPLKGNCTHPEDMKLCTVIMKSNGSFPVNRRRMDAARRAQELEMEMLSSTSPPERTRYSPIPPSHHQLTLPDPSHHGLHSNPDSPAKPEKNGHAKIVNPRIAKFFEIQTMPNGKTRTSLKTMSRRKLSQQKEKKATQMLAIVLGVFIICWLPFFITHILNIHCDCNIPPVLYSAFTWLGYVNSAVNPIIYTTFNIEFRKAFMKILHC

For `O=C(O)c1ccccc1C(=O)Nc1cccc2ccccc12` [NPA,(+)], the affinity, expressed as Ki, was 7.07 nM. That is a single-digit nanomolar value.

`O=c1[nH]c2ccccc2n1C1CCN(CCCC(c2ccc(F)cc2)c2ccc(F)cc2)CC1` [1-(1-(4,4-bis(4-fluorophenyl)butyl)piperidin-4-yl)-1H-benzo[d]imidazol-2(3H)-one]: affinity was put at a Ki of 0.19 nM.

With `CCN1CCCC1CNC(=O)c1cc(S(N)(=O)=O)ccc1OC` (configuration not stated) [N-[(1-ethylpyrrolidin-2-yl)methyl]-2-methoxy-5-sulfamoylbenzamide], affinity was put at a Ki of 14.4 nM.

`CCN1CCC[C@H]1CNC(=O)c1cc(I)cc(OC)c1OC`: the Ki (usually the equilibrium dissociation constant of an inhibitor or competing ligand from its target) amounted to 0.05 nM.

`CCCN1CCCC(c2cccc(O)c2)C1` (configuration not stated) [CAS_85976-54-1] returned an inhibition constant (Ki) of 5620 nM.

`OCCN1CCN(CC/C=C2/c3ccccc3Sc3ccc(C(F)(F)F)cc32)CC1` [(cis) 2-{4-[3-(2-Trifluoromethyl-thioxanthen-9-ylidene)-propyl]-piperazin-1-yl}-ethanol(Flupentixol)] displayed an inhibitory constant (Ki) of 0.48 nM.

On to `CC(C)C[C@H]1C(=O)N2CCC[C@H]2[C@]2(O)O[C@](NC(=O)[C@@H]3C=C4c5cccc6[nH]c(Br)c(c56)C[C@H]4N(C)C3)(C(C)C)C(=O)N12` [Bromocriptine+ (GTP+)], for which affinity was put at a Ki of 0.69 nM.
